We go through six compounds from patent publication US20100143250A1, “COMPOUNDS FOR THE DIAGNOSIS OF APOPTOSIS” (priority 2007, published 2010).

pIC50, pKd: −log10 of the molar value. Ends that are not written are not given here.

Data set [1] in a line: Interaction of USPIO-LIKKPF with immobilized PS, iron assayed with Prussian blue. The data set is classed as binding. Particulars: 2 hours at 37° C., read-out: K*d value. The method, then: The affinity of the USPIO-LIKKPF is measured on immobilized PS (120 μg/ml). After saturation of the nonspecific sites, the USPIO-LIKKPF is incubated at increasing concentrations (122 nM-4 mM with respect to iron) for 2 hours at 37° C. After washing of the wells, the molecules bound to the PS are digested in one volume of 5N HCl. The samples are digested in one volume of 5N HCl, for 48 h at 37° C., and the iron is assayed using Prussian blue (OD630).

Data set [2] can be described thus: Annexin V competition assay for the interaction of USPIO-LIKKPF with PS. The following applies: FIG. 3. Type of data set: binding.
Data set [3] relates to apoptotic Jurkat cells. As to the kind of experiment: In vitro MRI on apoptotic or control Jurkat cells preincubated with USPIO. The data set is classed as cell-based. How it is done:
The in vitro MRI is carried out on apoptotic (or control) cells preincubated with the USPIO-LIKKPF or unfunctionalized USPIO (3 or 4 mM with respect to iron) for 2 hours at 37° C. Jurkat cell apoptosis is induced by a treatment with 2 μM camptothecin for 24 hours. After incubation with the USPIO, the labeled cells are transferred into a 0.2% gelatin solution for analysis by MRI (Bruker Avance-200, 4.7 T, TR/TE=3000/20 ms, 30 echos, matrix=256×256, FOV=4 cm, slice thickness=1 mm) in ELISA plate wells.

Data set [4] concerns dopaminergic neurons treated with MPP+. As to the kind of experiment: MRI detection in cell culture, healthy cells vs cells treated with MPP+. Type of data set: cell-based, rat. The method, then:
(§1) MRI studies were carried out on C57BI/6 mice treated with MPTP (or its metabolite MPP+ for cell cultures), a neurotoxin which induces a “parkinsonien” syndrome.
In cell culture, the death of dopaminergic neurons by apoptosis was verified using rat brains, by immunohistochemistry and detection of caspase 3 enzyme activity. For the MRI detection in cell culture, the healthy cells and cells treated with MPP+ were brought into contact with USPIO-LIKKPF.

Data set [5] has as its system apoptotic nervous tissues. Briefly: MRI of mice treated with MPTP (model of Parkinson's disease). Type of data set: in vivo. Particulars: 4th, 5th, 6th day of treatment, one and three weeks after. The method, then:
In a model of Parkinson's disease, with the injection of USPIO-LIKKPF product (product of example 1)
as §1
The diseased and healthy mice were studied on the 4th, 5th and 6th day of treatment, and one and three weeks after the end of the treatment with MPTP. […] The MRI localization of the diseased regions corresponds to the regions containing dopaminergic neurons (immunohistochemistry: detection of dopaminergic neurons by measuring tyrosine hydroxylase in the central gray nuclei).

Data set [6] can be described thus: Annexin V competition assay for peptide LIKKPF on immobilized PS (ELISA plate). The data set is classed as binding. The following applies: interaction of peptide LIKKPF with PS, FIG. 1. The method, then: The affinity of the peptide LIKKPF (SEQ ID No 11) is measured on immobilized PS (ELISA plate). […] Incubation at 37° C. is sustained for 1.5 hours. The bound annexin V is detected by adding a solution of streptavidin-HRP, and then a solution of ABTS substrate containing 0.05% of H2O2. The OD405 is measured in order to calculate the IC50 value of the peptide.

The nature of data set [7]: Relaxivity measurements (r1, r2) in aqueous solution. The data set is classed as physicochemical. The method, then:
The relaxation times T1 and T2 were determined by standard procedures on a Minispec 120 instrument (Bruker) at 20 MHz (0.47T) and 37° C. The longitudinal relaxation time T1 is measured using an inversion-recovery sequence and the transverse relaxation time T2 is measured using a CPMG technique.
The relaxation rates R1 (=1/T1) and R2 (=1/T2) were calculated for various concentrations of total metal (ranging from 0.1×10^−3 to 1×10^−3 mol/l) in an aqueous solution at 37° C. The correlation between R1 or R2 as a function of the concentration is linear, and the slope represents the relaxivity r1 (R1/C) or r2 (R2/C) expressed as (1/second)×(1/mmol/l), i.e. (s^−1.mM^−1).

Data set [8] deals with mouse apoptotic liver. Briefly: MRI of apoptotic liver in the mouse (anti-Fas antibody induced). The data set is classed as in vivo, Balb/c mice. The method, then: The targeting effectiveness of the Gd-DTPA-LIKKPF product by MRI was also evaluated on a model of apoptotic liver in the mouse. The apoptosis is induced by means of an i.v. injection (caudal vein) of anti-Fas monoclonal antibody in anesthetized Balb/c mice (Blankenberg et al., 1998, 1999; Rodriguez et al., 1996).
Before the MRI acquisition, the mice are anesthetized with pentobarbital. The experiments are carried out using a 200 MHz Bruker spectrometer (4.7 T) equipped with a vertical magnet and with a mini-imaging system. […] The signal intensity (SI) is measured in the liver. The SI value is also measured in a tube filled with a 2% aqueous solution of gelatin enriched with 50 μM Gd-DTPA, used as a reference product, in a region outside the image of the mouse which corresponds to the background noise. […]
For the two models, the SI values are measured in various regions of interest (at the level of the arterial wall of the abdominal aorta or whole liver) using the OSIRIS image analysis software. […] The SI value is measured on all the image slices where the arterial wall and the liver are visible. […] The % ΔSNR is calculated according to the following equation:
% ΔSNR=[(SIpost/SDnoise)−(SIpre/SDnoise)]/[SIpre/SDnoise]×100 where SDnoise is the standard deviation of the noise measured on a region outside the animal.

For the compound “USPIO-LIKKPF: USPIO-PEG-PEPTIDE P contrast product with PEPTIDE P being LIKKPF; product of example 1, PEG size not stated (also: coupled to USPIO nanoparticle via PEG linker, site not given here)”, in data set [1], the pKd was 7.11. Also, the pIC50 (in general, −log10 of the IC50, conventionally taken in molar units) in data set [2] was 6.38. In addition, the “binding to apoptotic cells by MRI (signal intensity vs control cells)” value in data set [3] (Jurkat cells, 2 μM camptothecin 24 hours, 3 or 4 mM iron, 2 hours at 37° C.) was “binds specifically to the apoptotic cells”. For the same compound, the “decrease in MRI signal induced by incubation, vs unfunctionalized USPIO” value in data set [3] (apoptotic cells, 3 mM and 4 mM Fe, FIG. 4) is “greater than that recorded with the unfunctionalized USPIO”. Also, in data set [4], the “MRI signal of diseased vs healthy cells” value is given as “diseased cells show a darker signal than the others”; the “uptake of contrast agent (standardized relaxation rate and iron concentration)” value is on record as “diseased cells have taken up a larger amount of vectorized contrast agent”. Further, the “targeting of diseased regions by MRI” value in data set [5] is recorded as “more marked at the 5th day”.
With “annexin V: endogenous protein of 35 kDa with high affinity and specificity for PS”, the pIC50 in data set [6] was 8.97.
In the case of “Peptide No. 3-DTPAGd: Bz-NCS-DTPA condensed with peptide Pro-Gly-Asp-Leu-Ser-Arg-OH, complexed with gadolinium (PGDLSR; Bz-NCS-DTPA-Gd conjugate; printed: Pro-Gly-Asp-Leu-Ser-Arg-)”, the “Relaxivities measured at 20 MHz (37° C.)” value in data set [7] is 6.7 s⁻¹ mM⁻¹.
Consider `O=C([O-])CN(CCN(CC(=O)[O-])CC(=O)O)CCN(CC(=O)[O-])CC(=O)O.[Gd+3]` [Gd-DTPA, reference compound], for which the “MRI signal enhancement in the healthy mouse” value in data set [8] (healthy mouse) is on record as “only a partial signal enhancement”.
As to Leu-Ile-Lys-Lys-Pro-Phe-OH (LIKKPF-OH), the “effect of preinjection on the enhancement caused by Gd-DTPA-LIKKPF” value in data set [8] (peptide preinjected at 100 μmol/kg, apoptotic liver) is on record as “blocks the enhancement caused by the Gd-DTPA-LIKKPF”.
Regarding “Peptide No. 1-DTPAGd: Bz-NCS-DTPA condensed with peptide Asp-Ala-His-Ser-Phe-SerOH, complexed with gadolinium (DAHSFS; Bz-NCS-DTPA-Gd conjugate; printed: Asp-Ala-His-Ser-Phe-Ser)”, the “Relaxivities measured at 20 MHz (37° C.)” value in data set [7] amounted to 6.8 s⁻¹ mM⁻¹.
